The values below come from US5760240A, “Taxoid synthesis” (The Scripps Research Institute, priority 1995, dated 1998).

One data set has as its system L-1210. The experiment in a line: Cytotoxicity against tumor cell lines: L-1210. It is filed as cell-based. Particulars: Mus musculus, L1210; cell line L-1210.
The next data set concerns BT-549. The experiment in a line: Cytotoxicity against tumor cell lines: BT-549. It is filed as cell-based. As to conditions: Homo sapiens; cell line BT-549.
The next data set concerns Ovcar 3. In words: Cytotoxicity against tumor cell lines: Ovcar 3. It is filed as cell-based. Particulars: Homo sapiens; cell line Ovcar 3.
The next data set deals with UCLA-P3. In words: Cytotoxicity against tumor cell lines: UCLA-P3. As to conditions: Homo sapiens, UCLA P-3; cell line UCLA-P3. It is filed as cell-based.
A further data set concerns HT-29. The experiment in a line: Cytotoxicity against tumor cell lines: HT-29. It is filed as cell-based. Particulars: Homo sapiens; cell line HT-29.
The next data set has as its system SK-NH-SH. In words: Cytotoxicity against tumor cell lines: SK-NH-SH. It is filed as cell-based. As to conditions: cell line SK-NH-SH.
In the next data set the test system is 786-0. In words: Cytotoxicity against tumor cell lines: 786-0. It counts as cell-based. As to conditions: Homo sapiens; cell line 786-0.
Another data set deals with SK-Mel-28. In words: Cytotoxicity against tumor cell lines: SK-Mel-28. It counts as cell-based. As to conditions: Homo sapiens; cell line SK-Mel-28.
Another data set deals with SIH-A. In words: Cytotoxicity against tumor cell lines: SIH-A. It is filed as cell-based. As to conditions: Homo sapiens, SiHa; cell line SIH-A.
Another data set relates to A-549. The experiment in a line: Cytotoxicity against tumor cell lines: A-549. It counts as cell-based. As to conditions: Homo sapiens, A549; cell line A-549.
For data set [1], the system named is a variety of tumor cell lines. The experiment in a line: Cytotoxicity against a variety of tumor cell lines (in words). As to conditions: 15 and 15' under the same conditions.

pIC50: −log10 of the molar value.

As a reminder, the pIC50 is the negative decadic logarithm of the IC50, by convention in mol/L. As for `CC(=O)O[C@H]1C(=O)[C@@]2(C)[C@H]([C@H](OC(=O)c3ccccc3)[C@]3(O)C[C@H](OC(=O)[C@H](O)[C@@H](NC(=O)c4ccccc4)c4ccccc4)C(C)=C1C3(C)C)[C@]1(OC(C)=O)CO[C@@H]1C[C@@H]2O` [Taxol, reference compound], the negative-log IC50 (pIC50) in the data set on L-1210 is 8.15; with BT-549 it was 9.30; with Ovcar 3, 9.21; in the data set with UCLA-P3 it was 8.19; in the data set with HT-29 it was 7.29; with SK-NH-SH, 9.21. Moreover, the pIC50 in the data set on 786-0 was 5.66; with SK-Mel-28, 6.92.
Regarding `CC(=O)O[C@@H]1C2=C(C)[C@@H](OC(=O)[C@H](O)[C@@H](NC(=O)c3ccccc3)c3ccccc3)C[C@@](O)([C@@H](OC(=O)c3ccccc3)c3ccccc3[C@H]1OC(C)=O)C2(C)C` [Compound 15], the pIC50 in the data set with L-1210 was 5.95; in the data set on SIH-A it was 5.89; with BT-549, 5.28; in the data set on A-549, 6.19; in the data set with Ovcar 3, 6.55; with UCLA-P3 it was 6.53. In addition, the pIC50 was 6.89 with HT-29, 5.31 in the data set on SK-NH-SH, 5.71 in the data set with 786-0 and 5.57 in the data set with SK-Mel-28. For the same molecule, the figures for the “cytotoxicity against a variety of tumor cell lines” value in data set [1] and in [1] (listed as 15') were “significant cytotoxicity” and “essentially no cytotoxicity”, respectively.
